This note sets out measurements from ChEMBL document CHEMBL1201862, “PubChem BioAssay data set” (2004).

The structures appear in SMILES notation.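 Dose response: 5 concentrations. Exposure: 48 h. Format: 96-well plates. Endpoint: linear interpolation; highest concentration if not reached. The concentration for 50% growth inhibition is given as GI50.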 Calls of active or inactive are those of the source. Rule as the data show it: active = GI50 up to about 1.1 µM and inactive = higher. Some results are limits rather than exact numbers.

Experiment in all cases: NCI tumour cell line growth inhibition, 48 h
The subject of assay [1] is MOLT-4.
Assay [2] has as its system SK-MEL-2.
The test system of assay [3] is OVCAR-4.
The subject of assay [4] is SR.
Assay [5] deals with UACC-62.
The test system of assay [6] is NCI-H226.
Assay [7] relates to HOP-92.
The subject of assay [8] is COLO 205.
In assay [9] the test system is ACHN.
In assay [10] the test system is HCT-116.
The subject of assay [11] is HCT-15.
Assay [12] deals with SNB-75.
Assay [13] concerns MDA-N.
The test system of assay [14] is NCI/ADR-RES.
For assay [15], the system named is OVCAR-5.
Assay [16] concerns Malme-3M.
Assay [17] concerns SF-539.
Assay [18] concerns OVCAR-3.

Turning to `COC(=O)[C@H]1[C@H](OC(=O)[C@@H](OC)c2ccccc2)ON2CC[C@@H](OC(=O)c3ccccc3)[C@H]12`, the GI50 is > 100 µM (inactive) in [1]; 48.1 µM (inactive) in assay [2]; > 100 µM (inactive) in [3]; > 100 µM (inactive) in [4]; 10.7 µM (inactive) in assay [5]; > 100 µM (inactive) in [6]. For the same compound, the GI50 is 30.3 µM (inactive) in assay [7]; > 100 µM (inactive) in assay [8]; 10.3 µM (inactive) in assay [9]; > 100 µM (inactive) in assay [10]; more than 100 µM in [11]; 29 µM (inactive) in assay [12]. Also, the GI50 in [13], in assay [14], in [15] and in [16] was > 100 µM (inactive) each time.

Consider `CC(CC(C)(C)[N+](C)(C)C)[N+](C)(C)C` (stereo unspecified), for which the GI50 in assay [17], in assay [1], in assay [3], in [18], in assay [4] and in assay [5] was > 100 µM (inactive) each time. In addition, the GI50 was > 100 µM (inactive) in assay [6]; > 100 µM (inactive) in [7]; > 100 µM (inactive) in assay [8]; > 100 µM (inactive) in assay [9]; > 100 µM (inactive) in assay [10]; more than 100 µM in [11]. Also, the GI50 in assay [12] was 88.9 µM (inactive); in assay [13], > 100 µM (inactive); in [14], > 100 µM (inactive); in assay [15], > 100 µM (inactive); in assay [16], > 10 µM (inactive).

For the compound `COC(=O)[C@@H](O)[C@]1(C(=O)OC)C2O[C@@H](OC)[C@@H]1CCCCCC[C@H]2O`, the GI50 in [17] is > 100 µM (inactive); in assay [1], > 100 µM (inactive); in assay [2] it was 51.5 µM (inactive); in [3], > 100 µM (inactive); in [18], > 100 µM (inactive); in assay [4], > 100 µM (inactive). The GI50 in assay [5] is > 100 µM (inactive); in assay [6] it was > 100 µM (inactive); in [8], > 100 µM (inactive); in assay [9], > 100 µM (inactive); in [10] it was > 100 µM (inactive); in [11], more than 100 µM. Further, the GI50 in [12], in assay [13], in assay [14], in assay [15] and in [16] was > 100 µM (inactive) throughout.

`CC(C)(C)[Si](C)(C)OCC1OC(n2ccc(=O)[nH]c2=O)C(O[Si](C)(C)C(C)(C)C)[C@]12O[C@@H]2CO` (stereo partly specified): the GI50 in assay [17] was 21.5 µM (inactive); in assay [1], 8.3 µM (inactive); in [2], 14.7 µM (inactive); in assay [3], 13.6 µM (inactive); in assay [18] it was 14.9 µM (inactive); in assay [4], 3.61 µM (inactive). In addition, the GI50 in assay [5] was 16.3 µM (inactive); in [6], 13.8 µM (inactive); in [7], 15 µM (inactive); in [8] it was 17.5 µM (inactive); in assay [9], 11.9 µM (inactive); in assay [10], 11.3 µM (inactive). Further, the GI50 was 11.9 µM in [11]; 18.4 µM (inactive) in assay [12]; 20.9 µM (inactive) in assay [13]; 17.4 µM (inactive) in [14]; 17.5 µM (inactive) in assay [15].

With `CC(=O)O[C@@H]1CC2[C@@H](CCC3Cc4nc5c(nc4C[C@@]32C)CC2CC[C@@H]3C(CC[C@@]4(C)C3CC[C@@H]4C(C)CCCC(C)C)[C@@]2(C)C5)C2C[C@@H]3OC4(CCC(C)CO4)C(C)[C@@H]3[C@]21C` (stereo partly specified), the GI50 in assay [17] was > 100 µM (inactive); in assay [1], > 100 µM (inactive); in assay [3] it was > 100 µM (inactive); in [18], > 100 µM (inactive); in [4], > 100 µM (inactive); in [5], 2.01 µM (inactive). Moreover, the GI50 in assay [6] is 23.4 µM (inactive); in assay [7], 25.6 µM (inactive); in assay [8], > 100 µM (inactive); in assay [9], 55.7 µM (inactive); in assay [10] it was > 100 µM (inactive); in assay [11], more than 100 µM. The GI50 in assay [12] was 2.74 µM (inactive); in assay [13] it was > 100 µM (inactive); in assay [14], 30.3 µM (inactive); in [15], > 100 µM (inactive); in [16] it was > 100 µM (inactive).

Turning to `CCOC(=O)C(NS(=O)(=O)c1ccccc1)(C(F)(F)F)P(=O)(OCC(C)C)OCC(C)C` (stereo unspecified), the GI50 in assay [17], in assay [1], in [3], in [18], in assay [4] and in [5] was > 100 µM (inactive) throughout. Further, the GI50 in [6] was > 100 µM (inactive); in [7], > 100 µM (inactive); in assay [8] it was > 100 µM (inactive); in [9] it was > 100 µM (inactive); in assay [10], > 100 µM (inactive); in [11] it was more than 100 µM. Also, the GI50 in assay [12], in assay [13], in [14], in [15] and in assay [16] was > 100 µM (inactive) throughout.

As to `Cc1cc(C)c(P2C(=C(O[Si](C(C)C)(C(C)C)C(C)C)C(C)(C)C)C2(c2ccccc2)c2ccccc2)c(C)c1` (stereo unspecified), the GI50 in assay [17] was > 100 µM (inactive); in assay [1], > 100 µM (inactive); in assay [2], > 100 µM (inactive); in assay [3] it was > 100 µM (inactive); in assay [18], > 100 µM (inactive); in [4], 86.3 µM (inactive). For the same compound, the GI50 in assay [5] was > 100 µM (inactive); in [6] it was > 100 µM (inactive); in assay [7] it was > 100 µM (inactive); in assay [8], > 100 µM (inactive); in [9], > 100 µM (inactive); in assay [10] it was 52.8 µM (inactive). Besides, the GI50 in assay [11] was more than 100 µM; in assay [12] it was 88.1 µM (inactive); in assay [13] it was > 100 µM (inactive); in [14] it was > 100 µM (inactive); in [15], > 100 µM (inactive).

As to `CN(C)/C=N/n1c2ccccc2c2ccccc21`, the GI50 in assay [17] was > 100 µM (inactive); in [1], 69.8 µM (inactive); in assay [2], > 100 µM (inactive); in assay [3], > 100 µM (inactive); in assay [18], > 100 µM (inactive); in assay [4], > 100 µM (inactive). For the same compound, the GI50 in [5] was > 100 µM (inactive); in assay [6] it was > 100 µM (inactive); in assay [8], 83.6 µM (inactive); in [9], > 100 µM (inactive); in [10] it was > 100 µM (inactive); in assay [11] it was more than 100 µM. The GI50 was 71.1 µM (inactive) in assay [12]; > 100 µM (inactive) in assay [13]; > 100 µM (inactive) in assay [14]; > 100 µM (inactive) in assay [15]; 50.1 µM (inactive) in assay [16].

As to `CC(=O)Nc1nnc(S(=O)(=O)NC(=S)Nc2ccc(Cl)cc2)s1`, the GI50 in [17], in [1], in [2], in [3], in [18] and in assay [4] was > 100 µM (inactive) throughout. Moreover, the GI50 was > 100 µM (inactive) in [5]; > 100 µM (inactive) in assay [7]; > 100 µM (inactive) in assay [8]; > 100 µM (inactive) in assay [9]; > 100 µM (inactive) in assay [10]; more than 100 µM in assay [11]. Moreover, the GI50 in assay [12], in assay [13], in assay [14], in assay [15] and in assay [16] was > 100 µM (inactive) throughout.

`O=C1OC(C2=CC(=O)c3ccccc3C2=O)C(Cl)=C1Cl` (stereo unspecified): the GI50 in assay [17] is 27.4 µM (inactive); in assay [1], 34.4 µM (inactive); in [2] it was 14.1 µM (inactive); in assay [18], 33.1 µM (inactive); in [4], 24 µM (inactive); in assay [5], 17.4 µM (inactive). Besides, the GI50 was 27.2 µM (inactive) in [6]; 47 µM (inactive) in [7]; 35 µM (inactive) in [8]; 15.8 µM (inactive) in assay [9]; 32.4 µM (inactive) in [10]; 20 µM in assay [11]. In addition, the GI50 in assay [12] is 37.2 µM (inactive); in [13], 39.5 µM (inactive); in assay [14] it was 31.5 µM (inactive); in assay [15], 36.3 µM (inactive); in assay [16], 26.5 µM (inactive).

With `CC(C)(C)C(=O)O[C@H]1C=C[C@@H](O)[C@@H]2[C@H]1[C@@H]1C=C[C@H]2C1`, the GI50 is 26.5 µM (inactive) in [17]; 13.4 µM (inactive) in assay [1]; 13 µM (inactive) in [2]; 21.2 µM (inactive) in assay [3]; 19.7 µM (inactive) in assay [18]; 18.9 µM (inactive) in assay [4]. Besides, the GI50 was 9.79 µM (inactive) in assay [5]; 22.2 µM (inactive) in assay [7]; 6.03 µM (inactive) in assay [8]; 45.4 µM (inactive) in assay [9]; 29.6 µM (inactive) in assay [10]; 20 µM in assay [11]. Also, the GI50 in assay [12] is 29.9 µM (inactive); in assay [13], 19.3 µM (inactive); in assay [14] it was 20.2 µM (inactive); in assay [15], 1.96 µM (inactive); in assay [16] it was > 10 µM (inactive).
